In publication PMC4775916 (Antimicrobial Agents and Chemotherapy, 2016):
Where “and” joins values, the source holds several entries; their conditions need not be identical. Equal entries are not always repeated. Where two headings read alike, the source gives them in different places.

Tests used:
VIM-38 [1] = biological target: T1, VIM-38 (Pseudomonas aeruginosa, UniProt A0A0F7KYQ8, A128K/A265V/E202A/H201L/K257T/S205R); experiment: Steady-state kinetics of β-lactam substrate hydrolysis; assay type: biochemical; conditions: 50 mM HEPES pH 7.2, apparent for ampicillin and ceftazidime; for Km: read-out: Mean Km ± SD VIM-38
T1 construct: The N- and C- terminal residues of the mature enzymes are labelled 26; His6 with HRV3C cleavage site (pET-28a) (N, cleaved yes); made in house; host or cells: E. coli BL21(DE3)
Method: (§1) The hydrolysis of a representative panel of β-lactam substrates was monitored at their respective absorbance wavelengths. The wavelengths and extinction coefficients used were previously described ([34]). The assays were carried out using 50 mM HEPES buffer (pH 7.2) supplemented with 1 μg/ml bovine serum albumin (BSA), 1 μM ZnSO4, and 0.01% Triton X-100. In the case of VIM-1, C-terminally His6-tagged VIM-1 was used for kinetic analyses. Note that no differences were observed between the activities of untagged VIM-1 and C-terminally His6-tagged VIM-1 for the selected antibiotics (data not shown). The initial rates were obtained from the changes in absorbance at various substrate concentrations. Steady-state kinetic parameters (Km and kcat) were determined by fitting the initial velocity data to the Michaelis-Menten equation using GraphPad Prism 5.01 software (see Table S4 in the supplemental material).

VIM-38 [2] = experiment: as above; assay type: biochemical; conditions: VIM-38 versus VIM-1
Method: as §1

VIM-5 [3] = biological target: T2, VIM-5 (Pseudomonas aeruginosa, UniProt A0A0F7KYQ8, A128K/E202A/H201L/K257T/S205R); experiment: as above; assay type: biochemical; conditions: 50 mM HEPES pH 7.2, apparent for ampicillin and ceftazidime; for Km: read-out: Mean Km ± SD VIM-5
T2 construct: His6 with HRV3C cleavage site (pET-28a) (N, cleaved yes); made in house; host or cells: E. coli BL21(DE3)
Method: as §1

VIM-5 [4] = experiment: as above; assay type: biochemical; conditions: VIM-5 versus VIM-1
Method: as §1

VIM-1 [5] = biological target: T3, VIM-1 (Pseudomonas aeruginosa, UniProt A0A0F7KYQ8); experiment: as above; assay type: biochemical; conditions: C-terminally His6-tagged VIM-1; 50 mM HEPES pH 7.2; apparent for ampicillin and ceftazidime
T3 construct: The N- and C- terminal residues of the mature enzymes are labelled 26; made in house
Method: as §1

VIM-2 [6] = assay type: biochemical; conditions: VIM-2 versus VIM-1
Method: as §1

VIM-1 [7] = biological target: T3, VIM-1; conditions: previous studies ref Franceschini et al. (4), cited from earlier work
VIM-2 [8] = test system: VIM-2; design: method as in Poirel et al. (5); conditions: previous studies ref Poirel et al. (5), cited from earlier work
VIM-5 [9] = test system: VIM-5; design: method as in Garcar et al. (6); conditions: previous studies ref Garcar et al. (6), cited from earlier work
VIM-1 [10] = biological target: T3, VIM-1; experiment: Nitrocefin hydrolysis kinetics before thermal denaturation and after refolding; assay type: biochemical
Method: (§2) Circular dichroism (CD) analyses were carried out using a Chirascan CD spectrophotometer (Applied Photophysics) equipped with a Peltier temperature-controlled cell holder. CD measurements were collected in the range of 185 to 260 nm; spectra were baseline corrected and smoothed using a Savitzky-Golay filter. Data were normalized at 207 nm to account for differences in protein concentrations ([38]), and the estimation of secondary structure content was performed with Dichro Web ([39]) using the CONTIN Analysis Programme (reference set 6) ([40]). Melting temperatures (Tm) of the recombinant enzymes were determined by monitoring temperature-induced changes in the CD signal at 222 nm. The temperature was increased by 1°C per min, and the CD signal was recorded at temperatures ranging from 25°C to 92°C. The samples were then cooled from 92°C to 25°C at the same rate, and a CD spectrum of the refolded proteins was determined. The activity of the enzymes was recorded before thermal denaturation and after refolding by monitoring nitrocefin hydrolysis. The thermal denaturation data were fitted to a Boltzmann sigmoidal curve by using GraphPad Prism 5.0 software. CD spectra and thermal denaturation curves are shown in Fig. 2 and in Tables S2 and S3 in the supplemental material.

VIM-2 [11] = biological target: T4, VIM-2 (Escherichia coli, UniProt Q5U7L7); experiment: as above; assay type: biochemical
T4 construct: His6 (N, cleaved yes); made in house
Method: as §2

VIM-38 [12] = biological target: T1, VIM-38; experiment: as above; assay type: biochemical
Method: as §2

VIM-4 [13] = biological target: T5, VIM-4 (Pseudomonas aeruginosa, UniProt A0A0F7KYQ8, S205R); experiment: as above; assay type: biochemical
T5 construct: His6 (N, cleaved yes); made in house
Method: as §2

VIM-5 [14] = biological target: T2, VIM-5; experiment: as above; assay type: biochemical
Method: as §2

VIM-1 [15] = biological target: T3, VIM-1; experiment: Inhibition of enzyme-mediated nitrocefin hydrolysis; assay type: biochemical; conditions: read-out: IC50 VIM-1 (H224, S228); as to IC50 VIM-4 (H224, R228): 10 min preincubation
Method: (§3) Inhibitors were prepared as reported previously ([36], [41]). Enzyme-mediated hydrolysis of nitrocefin was monitored by determining the changes in absorbance at 495 nm, as previously described ([36], [37]). Residual activities were first determined at a 100 μM inhibitor concentration. […] The residual activities were obtained at increasing inhibitor concentrations (0.2 to 2,000 μM); the data were analyzed using GraphPad Prism 5.01 software.

VIM-2 [16] = biological target: T4, VIM-2; experiment: as above; assay type: biochemical; conditions: read-out: IC50 VIM-2 (Y224, R228)
Method: as §3

VIM-2 [17] = experiment: as above; assay type: biochemical; conditions: VIM-2 versus VIM-5 and VIM-38
Method: as §3

VIM-38 [18] = biological target: T1, VIM-38; experiment: as above; assay type: biochemical
Method: as §3

VIM-38 [19] = experiment: as above; assay type: biochemical; conditions: VIM-38 versus VIM-1
Method: as §3

VIM-4 [20] = biological target: T5, VIM-4; experiment: as above; assay type: biochemical; conditions: for IC50: read-out: IC50 VIM-4 (H224, R228)
Method: as §3

VIM-5 [21] = biological target: T2, VIM-5; experiment: as above; assay type: biochemical
Method: as §3

VIM-5 [22] = experiment: as above; assay type: biochemical; conditions: VIM-5 versus VIM-1
Method: as §3

VIM-2 [23] = biological target: T4, VIM-2; experiment: 1H CPMG NMR binding assay (thiomandelic acid reporter ligand displacement); conditions: 50 μM thiomandelic acid, 50 μM enzyme, 50 mM Tris-D11 pH 7.5, read-out: KD app VIM-2
Method: (§4) Binding assays were carried out using ^1H-edited Carr-Purcell-Meiboom-Gill (CPMG) nuclear magnetic resonance (NMR) analyses. Spectra were recorded by using a Bruker AVIII 600-MHz NMR spectrometer equipped with a BB-F/^1H Prodigy N2 cryoprobe using 3-mm Match NMR tubes (Cortectnet). The PROJECT-CPMG sequence (90°x-[τ-180°y-τ-90°y-τ-180°y-τ]n-acq) was applied, and water suppression was achieved by presaturation. […] Assays were conducted using 50 mM Tris-D11 (pH 7.5) supplemented with 0.02% NaN3 in 90% H2O and 10% D2O. Equilibrium dissociation constant (KD) measurements for the reporter ligand (50 μM thiomandelic acid) and inhibitors (0 to 300 μM) were carried out as previously reported ([43]). Data were processed with Bruker 3.1 software and fitted by using Origin Pro8.5.1 (see Table S5 in the supplemental material).
(§5) *Apparent kinetic parameters were reported for ampicillin and ceftazidime hydrolysis. #C-terminal His -tagged […]
(§6) VIM-1 was used for kinetic analyses.
(§7) Table S5. Apparent KD curve fitting for the binding of inhibitors (1) and (2) to VIM-2 and […]
(§8) Apparent KD fitting as monitored by 1H CPMG NMR spectra of the signal recovery of thiomandelic acid (50 μM) upon addition of increasing concentrations of 1 and 2 with a final enzyme concentration of 50 μM VIM-2/VIM-5. Assays were conducted in 50 mM Tris-D11 (pH […]
(§9) (also on this page, place not known: K D Tris-D 11 His6-tagged V0 (µM/ s) NN OHO % thiomandelic acid displacement µM % thiomandelic acid displacement) […]

VIM-5 [24] = biological target: T2, VIM-5; experiment: as above
Method: as §4, §5, §6, §7, §8, §9

With `CO[C@@]1(NC(=O)Cc2cccs2)C(=O)N2C(C(=O)O)=C(COC(N)=O)CS[C@@H]21` [Cefoxitin] the “kcat VIM-38” value (VIM-38 [1]) was 340 s⁻¹, the Km (VIM-38 [1]) was 230 ± 60 µM and the “fold increase in kcat/Km of VIM-38 over VIM-1” value (VIM-38 [2]) was > 7 fold. For the same molecule, the “fold-higher kcat of VIM-38 than VIM-1” value (VIM-38 [2]) was > 10 fold, the “kcat VIM-5” value (VIM-5 [3]) was 460 s⁻¹ and the Km (VIM-5 [3]) was 320 ± 60 µM. The “fold increase in kcat/Km of VIM-5 over VIM-1” value (VIM-5 [4]) was > 7 fold and the “fold-higher kcat of VIM-5 than VIM-1” value (VIM-5 [4]) was > 10 fold.
For `C[C@@H](O)[C@H]1C(=O)N2C(C(=O)O)=C(SCCN=CN)C[C@H]12` [Imipenem], the “kcat VIM-1” value (VIM-1 [5]) was 30 s⁻¹, the “kcat VIM-38” value (VIM-38 [1]) was 90 s⁻¹ and the Km (VIM-38 [1]) was 150 ± 20 µM. The “kcat VIM-5” value (VIM-5 [3]) was 58 s⁻¹ and 60 s⁻¹, the Km (VIM-5 [3]) was 58 µM and 60 µM and the “fold increase in kcat/Km of VIM-2 compared to VIM-1” value (VIM-2 [6]) was 6 fold. For the same molecule, the “kcat VIM-1 (previous study)” value (VIM-1 [7]) was 2 s⁻¹, the Km (VIM-1 [7]; read-out: Km VIM-1 (previous study)) was 1.5 µM and the “kcat VIM-2 (previous study)” value (VIM-2 [8]) was 9.9 s⁻¹. The Km (VIM-2 [8]; read-out: Km VIM-2 (previous study)) was 10 µM, the “kcat VIM-5 (previous study)” value (VIM-5 [9]) was 3.5 s⁻¹ and the Km (VIM-5 [9]; read-out: Km VIM-5 (previous study)) was 12 µM.
For `O=C(Cc1cccs1)N[C@@H]1C(=O)N2C(C(=O)O)=C(/C=C/c3ccc([N+](=O)[O-])cc3[N+](=O)[O-])CS[C@H]12` [Nitrocefin], the “kcat VIM-38” value (VIM-38 [1]) was 720 s⁻¹, the Km (VIM-38 [1]) was 70 ± 10 µM and the “kcat VIM-5” value (VIM-5 [3]) was 420 s⁻¹. For the same molecule, the Km (VIM-5 [3]) was 50 ± 5 µM, the “kcat VIM-1 after refolding” value (VIM-1 [10]; after refolding) was 12 s⁻¹ and the “kcat VIM-1 pre-heating” value (VIM-1 [10]; pre-heating) was 25 s⁻¹. The “kcat VIM-2 after refolding” value (VIM-2 [11]; after refolding) was 290 s⁻¹, the Km (VIM-2 [11]; pre-heating) was 13 ± 1 µM and the “kcat VIM-2 pre-heating” value (VIM-2 [11]; pre-heating) was 290 s⁻¹. The “kcat VIM-38 pre-heating” value (VIM-38 [12]; pre-heating) was 690 s⁻¹, the Km (VIM-38 [12]; read-out: Km VIM-38 after refolding, after refolding) was 40 ± 4 µM and the Km (VIM-38 [12]; read-out: Km VIM-38 pre-heating, pre-heating) was 55 ± 6 µM. The “kcat VIM-4 after refolding” value (VIM-4 [13]; after refolding) was 180 s⁻¹, the Km (VIM-4 [13]; after refolding, read-out: Km VIM-4 after refolding) was 30 ± 2 µM and the “kcat VIM-4 pre-heating” value (VIM-4 [13]; pre-heating) was 340 s⁻¹. For the same molecule, the Km (VIM-4 [13]; pre-heating, read-out: Km VIM-4 pre-heating) was 45 ± 1 µM, the “kcat VIM-5 after refolding” value (VIM-5 [14]; after refolding) was 100 s⁻¹ and the Km (VIM-5 [14]; after refolding, read-out: Km VIM-5 after refolding) was 11 ± 1 µM. For the same molecule, the “kcat VIM-5 pre-heating” value (VIM-5 [14]; pre-heating) was 210 s⁻¹ and the Km (VIM-5 [14]; pre-heating, read-out: Km VIM-5 pre-heating) was 45 ± 3 µM.
With `O=C(N[C@H](Cc1c[nH]c2ccccc12)C(=O)O)c1nc(Cl)c2ccccc2c1O` [compound 1] the IC50 (VIM-1 [15]) was > 1000 µM, the IC50 (VIM-2 [16]) was 90 µM and the “fold-higher IC50 of VIM-2 than VIM-5 and VIM-38” value (VIM-2 [17]) was > 40 fold. For the same molecule, the IC50 (VIM-38 [18]) was 2 µM, the “better inhibitor of VIM-38 than VIM-1 (IC50 ratio)” value (VIM-38 [19]) was > 500 fold and the “fold-higher IC50 of VIM-4 than VIM-5 and VIM-38” value (VIM-4 [20]; VIM-4 versus VIM-5 and VIM-38) was > 40 fold. For the same molecule, the IC50 (VIM-4 [20]) was 200 µM, the IC50 (VIM-5 [21]) was 2 µM and the “better inhibitor of VIM-5 than VIM-1 (IC50 ratio)” value (VIM-5 [22]) was > 500 fold. The Kd (VIM-2 [23]) was 180 µM and the Kd (VIM-5 [24]) was 140 µM.
Molecule `O=C(N[C@@H](Cc1c[nH]c2ccccc12)C(=O)O)c1nc(Cl)c2ccccc2c1O` [compound 2] has an IC50 (VIM-1 [15]) of 60 µM, an IC50 (VIM-2 [16]) of 300 µM and an IC50 (VIM-38 [18]) of 80 µM. The IC50 (VIM-4 [20]) was 600 µM, the IC50 (VIM-5 [21]) was 50 µM and the Kd (VIM-2 [23]) was 330 µM. It also gave a Kd (VIM-5 [24]) of 180 µM.
